In assay [1] the test system is Human skeletal muscle myoblasts (HSMMs). Briefly: Cell proliferative capacity (WST-1 assay). It counts as cell-based. Particulars: SV peptide 20 ng/mL. The method, then: Human skeletal muscle myoblasts (HSMMs) were purchased from Lonza and used. The medium used for HSMM culture was the supplier's recommended medium (Skeletal Muscle Growth Media-2 supplemented with SingleQuots Kit).
(§1) Human skeletal muscle satellite cells and human skeletal muscle myoblasts were separately seeded at 1.0×10^4 cells/mL in each well of non-treated polystyrene 96-well cell culture plates (Falcon). The SV peptide (20 ng/mL, SV group), the random SV (20 ng/mL, random SV group), or PBS (PBS group) was added to the medium. The plates were cultured at 37° C. in a 5% CO2 atmosphere. After 0, 12, 24, 48, and 72 hours, cell proliferation was assessed using Premix WST-1 Cell Proliferation Assay System (Takara Bio, Japan).
In general terms: Tetrazolium dyes change colour on reduction, which living cells bring about.

For assay [2] the following is noted: Patent Literature 3; cited from earlier work.
In assay [3] the test system is Human skeletal muscle satellite cells (HskMSCs). Briefly: Cell proliferative capacity (WST-1 assay). It counts as cell-based. Particulars: SV peptide 20 ng/mL; 0-72 hours.
Description: Human skeletal muscle satellite cells (HskMSCs) were purchased from ScienCell Research Laboratories and used. The medium used for HskMSC culture was the supplier's recommended medium (Skeletal Muscle Cell Medium containing 5% FBS, Skeletal Muscle Cell Growth Supplement, and penicillin/streptomycin solution).
as §1

Assay [4] concerns muscle injury model rats (incised masseter muscles on both sides). The experiment in a line: Electrophysiological experiment (masseter EMG, Lissajous pattern), Example 1. It counts as in vivo, Jcl:SD rats. As to conditions: 1 week postoperatively. The method, then: (§2) Incisions were made in masseter muscles on both sides in Jcl:SD rats (10 weeks old). Immediately after muscle incision, 1 mL each of the SV peptide (20 ng/mL) was intramuscularly administered into several sites surrounding the cut surfaces. The incision on each side was made along a straight line connecting the lateral angle of the eye and the mandibular angle, extending in depth from the fascia on the skin side to the lateral periosteum on the mandibular ramus. The cut surfaces were subjected to electrocoagulation with an electric scalpel for the arrest of bleeding (see FIG. 1).
This experiment was performed on rats subjected to incision of masseter muscles on both sides and subsequent administration of the SV peptide into the incised left masseter muscle and of PBS into the incised right masseter muscle. Bipolar needle electrodes were retained in the masseter muscles on both sides, and myogenic potential signals received through connectors fixed to both sides of the parietal bone were monitored. Electromyographic (EMG) data were recorded preoperatively and 1 week postoperatively. Generally, in the electromyogram of masseter muscles recorded during food ingestion, the cutting phase and the grinding phase in the masticatory movement show different waveforms. […]
Lissajous pattern (FIG. 3). […] Based on this, the chewing side preference was determined.

Assay [5] shares this test system. Briefly: Histological staining of masseter muscles at postoperative week 8, Example 2. It counts as in vivo, Jcl:SD rats. As to conditions: sirius red staining. The method, then:
as §2, with “old) under anesthesia in the same manner as in Example 1.” for “old).”, “ng/mL) or 1 mL each of PBS” for “ng/mL)”, “1). […]” for “1).”
Each rat was euthanized at postoperative week 8, and the masseter muscles on both sides were excised. […] Histological characteristics of regenerated muscle fibers at the muscle injury site were assessed on the HE-stained sections. The amount of muscle fibers formed and the diameter of the muscle fibers in the tissue were measured on the sirius red-staining sections.

As to SVVYGLR [SV peptide], the cell proliferative capacity result in assay [1] (time course within SV group) was “significantly increased after 24-hour treatment with the SV peptide and then reached a plateau”; in assay [1] (vs PBS group or random SV group, 12 hours and thereafter) it was “significantly higher at 12 hours post-treatment and remained significantly higher thereafter than that in the PBS group or the random SV group”; in assay [3], “not enhanced”. Besides, the cardiac function result in assay [2] is recorded as “improves cardiac function”. In assay [4] (SV peptide into left, PBS into right masseter muscle), the chewing side preference entry is “left-side chewing preference was seen postoperatively”. In assay [4] (left = SV peptide side, right = PBS side), the “mean myogenic potential of the left masseter muscle during left-side chewing” value is recorded as “reduced postoperatively, but the degree of the reduction was smaller than that in the mean myogenic potential of the right masseter muscle”. The “amount of scar formation (area of scar tissue formed on the cut surfaces)” value in assay [5] (SV peptide administration side vs PBS administration side) was “remarkably reduced from that on the PBS administration side in the PBS group”. Further, in assay [5] (SV side vs control side in SV group), the “diameter of the muscle fibers” value is “significantly larger than that on the control side in the same group”.

These data come from patent US11077167B2, “Agent for promoting skeletal muscle injury repair” (Osaka University, priority 2017, dated 2021).
